Results as given in PubChem BioAssay (NCI).
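96-well plates; 48 h exposure; 5 concentrations. Endpoints by linear interpolation between flanking doses. Not reached: highest tested concentration assigned. GI50: concentration for 50% inhibition of growth. The concentration for full growth arrest is given as TGI.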

Assays:
Experiment in all cases: inhibition of tumour cell growth, NCI panel, 48 h
A498 renal = test system: A498 renal
A549 NSCLC = test system: A549 NSCLC
ACHN renal = test system: ACHN renal
CAKI-1 renal = test system: CAKI-1 renal
CCRF-CEM leukemia = test system: CCRF-CEM leukemia
COLO 205 colon = test system: COLO 205 colon
DU-145 prostate = test system: DU-145 prostate
EKVX NSCLC = test system: EKVX NSCLC
HCC-2998 colon = test system: HCC-2998 colon
HCT-15 colon = test system: HCT-15 colon
HL-60(TB) leukemia = test system: HL-60(TB) leukemia
HOP-62 NSCLC = test system: HOP-62 NSCLC
HOP-92 NSCLC = test system: HOP-92 NSCLC
HT29 colon = test system: HT29 colon
IGROV1 ovarian = test system: IGROV1 ovarian
K-562 leukemia = test system: K-562 leukemia
KM12 colon = test system: KM12 colon
LOX IMVI melanoma = test system: LOX IMVI melanoma
M14 melanoma = test system: M14 melanoma
MCF7 breast = test system: MCF7 breast
MDA-MB-231 breast = test system: MDA-MB-231 breast
MDA-MB-435 = test system: MDA-MB-435
MDA-N = test system: MDA-N
MOLT-4 leukemia = test system: MOLT-4 leukemia
NCI-H226 lung = test system: NCI-H226 lung
NCI-H23 lung = test system: NCI-H23 lung
NCI-H460 lung = test system: NCI-H460 lung
NCI/ADR-RES ovarian = test system: NCI/ADR-RES ovarian
OVCAR-3 ovarian = test system: OVCAR-3 ovarian
OVCAR-4 ovarian = test system: OVCAR-4 ovarian
OVCAR-5 ovarian = test system: OVCAR-5 ovarian
OVCAR-8 ovarian = test system: OVCAR-8 ovarian
PC-3 prostate = test system: PC-3 prostate
RPMI-8226 leukemia = test system: RPMI-8226 leukemia
RXF 393 renal = test system: RXF 393 renal
SF-295 CNS = test system: SF-295 CNS
SF-539 CNS = test system: SF-539 CNS
SK-MEL-2 melanoma = test system: SK-MEL-2 melanoma
SK-MEL-28 melanoma = test system: SK-MEL-28 melanoma
SK-MEL-5 melanoma = test system: SK-MEL-5 melanoma
SK-OV-3 ovarian = test system: SK-OV-3 ovarian
SNB-19 CNS = test system: SNB-19 CNS
SNB-75 CNS = test system: SNB-75 CNS
SR leukemia = test system: SR leukemia
SW-620 colon = test system: SW-620 colon
T-47D breast = test system: T-47D breast
TK-10 renal = test system: TK-10 renal
U251 CNS = test system: U251 CNS
UACC-257 melanoma = test system: UACC-257 melanoma
UACC-62 melanoma = test system: UACC-62 melanoma
UO-31 renal = test system: UO-31 renal
786-0 renal = test system: 786-0 renal
BT-549 breast = test system: BT-549 breast
HCT-116 colon = test system: HCT-116 colon
HS 578T breast = test system: HS 578T breast
MALME-3M melanoma = test system: MALME-3M melanoma
NCI-H522 lung = test system: NCI-H522 lung
SF-268 CNS = test system: SF-268 CNS
SN12C renal = test system: SN12C renal

CCOC(=O)c1csc(NC(=O)CCN(CC)CC)n1
TGI (A498 renal): > 100 µM
TGI (A549 NSCLC): > 100 µM
TGI (ACHN renal): > 100 µM
TGI (CAKI-1 renal): 42.8 µM
TGI (CCRF-CEM leukemia): 83.3 µM
TGI (COLO 205 colon): 84.8 µM
TGI (DU-145 prostate): > 100 µM
TGI (EKVX NSCLC): > 100 µM
TGI (HCC-2998 colon): > 100 µM
TGI (HCT-15 colon): 75.3 µM
TGI (HL-60(TB) leukemia): > 100 µM
TGI (HOP-62 NSCLC): > 100 µM
TGI (HOP-92 NSCLC): 69.3 µM
TGI (HT29 colon): 64.6 µM
TGI (IGROV1 ovarian): > 100 µM
TGI (K-562 leukemia): > 100 µM
TGI (KM12 colon): 52.8 µM
TGI (LOX IMVI melanoma): > 100 µM
TGI (M14 melanoma): 64.1 µM
TGI (MCF7 breast): 55.5 µM
TGI (MDA-MB-231 breast): > 100 µM
TGI (MDA-MB-435): > 100 µM
TGI (MDA-N): > 100 µM
TGI (MOLT-4 leukemia): 90.3 µM
TGI (NCI-H226 lung): 89 µM
TGI (NCI-H23 lung): > 100 µM
TGI (NCI-H460 lung): > 100 µM
TGI (NCI/ADR-RES ovarian): > 100 µM
TGI (OVCAR-3 ovarian): 69 µM
TGI (OVCAR-4 ovarian): > 100 µM
TGI (OVCAR-5 ovarian): > 100 µM
TGI (OVCAR-8 ovarian): 95.9 µM
TGI (PC-3 prostate): > 100 µM
TGI (RPMI-8226 leukemia): > 100 µM
TGI (RXF 393 renal): > 100 µM
TGI (SF-295 CNS): > 100 µM
TGI (SF-539 CNS): 56.8 µM
TGI (SK-MEL-2 melanoma): > 100 µM
TGI (SK-MEL-28 melanoma): 62 µM
TGI (SK-MEL-5 melanoma): > 100 µM
TGI (SK-OV-3 ovarian): > 100 µM
TGI (SNB-19 CNS): > 100 µM
TGI (SNB-75 CNS): 73.5 µM
TGI (SR leukemia): > 100 µM
TGI (SW-620 colon): 92.8 µM
TGI (T-47D breast): > 100 µM
TGI (TK-10 renal): 62.8 µM
TGI (U251 CNS): > 100 µM
TGI (UACC-257 melanoma): > 100 µM
TGI (UACC-62 melanoma): > 100 µM
TGI (UO-31 renal): > 100 µM

O=C(NCCOCCOCCNc1cccc2c1C(=O)N(C1CCCNC1=O)C2=O)c1cc2c(o1)C(=O)c1ccccc1C2=O (configuration not stated)
GI50 (786-0 renal): 3.26 µM
TGI (786-0 renal): 10.9 µM
GI50 (A498 renal): 1.77 µM
TGI (A498 renal): 3.21 µM
GI50 (A549 NSCLC): 2.11 µM
TGI (A549 NSCLC): 4.8 µM
GI50 (ACHN renal): 2.29 µM
TGI (ACHN renal): 6.5 µM
GI50 (BT-549 breast): 1.59 µM
TGI (BT-549 breast): 2.98 µM
GI50 (CAKI-1 renal): 2.75 µM
TGI (CAKI-1 renal): 9.3 µM
GI50 (CCRF-CEM leukemia): 4.48 µM
TGI (CCRF-CEM leukemia): > 100 µM
GI50 (COLO 205 colon): 2.1 µM
TGI (COLO 205 colon): 4.12 µM
GI50 (DU-145 prostate): 1.69 µM
TGI (DU-145 prostate): 3.11 µM
GI50 (EKVX NSCLC): 2.88 µM
TGI (EKVX NSCLC): 10.1 µM
GI50 (HCC-2998 colon): 2.01 µM
TGI (HCC-2998 colon): 4.02 µM
GI50 (HCT-116 colon): 2.06 µM
TGI (HCT-116 colon): 5.54 µM
GI50 (HCT-15 colon): 2.06 µM
TGI (HCT-15 colon): 5.5 µM
GI50 (HL-60(TB) leukemia): 2.38 µM
TGI (HL-60(TB) leukemia): 6.78 µM
GI50 (HOP-62 NSCLC): 1.91 µM
TGI (HOP-62 NSCLC): 3.37 µM
GI50 (HOP-92 NSCLC): 3.31 µM
TGI (HOP-92 NSCLC): 13.6 µM
GI50 (HS 578T breast): 2.43 µM
TGI (HS 578T breast): 7.19 µM
GI50 (HT29 colon): 2.93 µM
TGI (HT29 colon): 8.05 µM
GI50 (IGROV1 ovarian): 1.99 µM
TGI (IGROV1 ovarian): 5.33 µM
GI50 (K-562 leukemia): 2.75 µM
TGI (K-562 leukemia): 11.1 µM
GI50 (KM12 colon): 2.91 µM
TGI (KM12 colon): 10 µM
GI50 (LOX IMVI melanoma): 1.17 µM
TGI (LOX IMVI melanoma): 3 µM
GI50 (M14 melanoma): 0.772 µM
TGI (M14 melanoma): 2.18 µM
GI50 (MALME-3M melanoma): 0.176 µM
TGI (MALME-3M melanoma): 0.401 µM
GI50 (MCF7 breast): 1.25 µM
TGI (MCF7 breast): 3.21 µM
GI50 (MDA-MB-231 breast): 2.72 µM
TGI (MDA-MB-231 breast): 9.96 µM
GI50 (MDA-MB-435): 1.62 µM
TGI (MDA-MB-435): 3.05 µM
GI50 (MOLT-4 leukemia): 2.4 µM
TGI (MOLT-4 leukemia): 6.01 µM
GI50 (NCI-H226 lung): 1.78 µM
TGI (NCI-H226 lung): 3.95 µM
GI50 (NCI-H23 lung): 0.313 µM
TGI (NCI-H23 lung): 1.79 µM
GI50 (NCI-H460 lung): 1.85 µM
TGI (NCI-H460 lung): 3.59 µM
GI50 (NCI-H522 lung): 2 µM
TGI (NCI-H522 lung): 4.77 µM
GI50 (NCI/ADR-RES ovarian): 10.3 µM
TGI (NCI/ADR-RES ovarian): 32 µM
GI50 (OVCAR-3 ovarian): 0.682 µM
TGI (OVCAR-3 ovarian): 2.69 µM
GI50 (OVCAR-4 ovarian): 1.41 µM
TGI (OVCAR-4 ovarian): 2.73 µM
GI50 (OVCAR-5 ovarian): 1.77 µM
TGI (OVCAR-5 ovarian): 3.19 µM
GI50 (OVCAR-8 ovarian): 2.31 µM
TGI (OVCAR-8 ovarian): 10.6 µM
GI50 (PC-3 prostate): 2.63 µM
TGI (PC-3 prostate): 46 µM
GI50 (RPMI-8226 leukemia): 3.29 µM
TGI (RPMI-8226 leukemia): 14.1 µM
GI50 (RXF 393 renal): 1.8 µM
TGI (RXF 393 renal): 3.99 µM
GI50 (SF-268 CNS): 2.39 µM
TGI (SF-268 CNS): 6.35 µM
GI50 (SF-295 CNS): 1.7 µM
TGI (SF-295 CNS): 3.13 µM
GI50 (SF-539 CNS): 1.75 µM
TGI (SF-539 CNS): 3.18 µM
GI50 (SK-MEL-2 melanoma): 2.11 µM
TGI (SK-MEL-2 melanoma): 6.1 µM
GI50 (SK-MEL-28 melanoma): 2.31 µM
TGI (SK-MEL-28 melanoma): 4.61 µM
GI50 (SK-MEL-5 melanoma): 0.707 µM
TGI (SK-MEL-5 melanoma): 1.99 µM
GI50 (SK-OV-3 ovarian): 2.87 µM
TGI (SK-OV-3 ovarian): 7.93 µM
GI50 (SN12C renal): 1.52 µM
TGI (SN12C renal): 2.96 µM
GI50 (SNB-19 CNS): 2.42 µM
TGI (SNB-19 CNS): 9.84 µM
GI50 (SNB-75 CNS): 2.65 µM
TGI (SNB-75 CNS): 4.61 µM
GI50 (SR leukemia): 2.63 µM
TGI (SR leukemia): > 100 µM
GI50 (SW-620 colon): 2.35 µM
TGI (SW-620 colon): 7.52 µM
GI50 (T-47D breast): 2.53 µM
TGI (T-47D breast): 8.81 µM
GI50 (TK-10 renal): 3.39 µM
TGI (TK-10 renal): 7.14 µM
GI50 (U251 CNS): 1.9 µM
TGI (U251 CNS): 3.9 µM
GI50 (UACC-257 melanoma): 1.45 µM
TGI (UACC-257 melanoma): 2.89 µM
GI50 (UACC-62 melanoma): 1.37 µM
TGI (UACC-62 melanoma): 2.99 µM
GI50 (UO-31 renal): 2.03 µM
TGI (UO-31 renal): 4.9 µM
